# Reference: the OligoGym collection
# These antisense oligonucleotides have a phosphorothioate backbone; sugars and methylation of C are not fully specified.
# Target: BIRC2
# Details: ASO
# Also: test concentration or dose not given here.
row,Sequence,remaining target (mRNA or protein) (fraction of control)
1,CAATCTGACAAGATCGTG,≥ 1
2,ATAACAGACCAATTACTG,≥ 1
3,AGGTGGATGCACTTCTGA,≥ 1
4,AGTGAAAAGCACCAAAGA,≥ 1
5,TCGCTTGTAAAGGTATCT,≥ 1
6,CCAAGGTGGGAGATAATG,0.97
7,TAGAATTAAGAGGGTTTG,≥ 1
8,TTCCTGGTTTCCAGTTCT,0.54
9,ATAATTGGTGGGTCAGCA,≥ 1
10,TTTTACTTTGAACTGTTT,≥ 1
11,GAGTAAGAACCACTGAAC,≥ 1
12,TTAGTTAGCCATAAAATT,≥ 1
13,ATATAGTTCACCAAACAT,≥ 1
14,TTCCCAACACCTCAAGCC,0.45
15,TATATGCAGGCTTCTTTC,0.77
16,TGGTAGGTAAGAAATCTG,≥ 1
17,CCAGATTCTGAATAAAGC,≥ 1
18,TTTCTCATTGGAGACGTA,0.68
19,AAAAGCTAAGTTCACACA,≥ 1
20,AAATTACACTCCATAGAA,≥ 1

row,Sequence,remaining target (mRNA or protein) (fraction of control)
1,AATCAACTCTACTAGCCT,0.53
2,TTTCTTCACATGAACTAA,≥ 1
3,ATTCTTATCCACAAATAA,≥ 1
4,ACTTTCTTCCTAACTTTG,≥ 1
5,TTAGATGGCTTCAAGTGT,0.9
6,AAGTCAATACCCACAAGC,≥ 1
7,TAGAGTTCACAGGAAAAG,≥ 1
8,CATTTCTTCAGCTTGTTT,≥ 1
9,GACCACAAGGAATAAATA,≥ 1
10,GGTAACCTAAGTGCTATT,≥ 1
11,CTAGTGTTATCAGAAACG,≥ 1
12,TTAAGGACTATTCAGCTA,≥ 1
13,TACCTTGAATCTCATCAA,≥ 1
14,TTGGCTTAAAGTTCAAAA,≥ 1
15,ACCTGGGAAAAGTCTTTG,≥ 1
16,AAGCACTTTAACATGACA,0.85
17,CTCAGATTTGAAATGCTA,≥ 1
18,TGCCTTTTATTTATATTT,≥ 1
19,TTCCCAGTTACTGAGCTT,0.22
20,TCAGGTAGGATGAGTATC,0.89

# Target: INPPL1
# Details: ASO
row,Sequence,remaining target (mRNA or protein) (fraction of control)
1,CATGGCTGATACGGTTCT,0.98
2,CCATAGGATTCATAGCCA,≥ 1
3,GGTCCTTCTCCTTCTCAA,0.52
4,AAGTAGTTTTGGTTCCTC,≥ 1
5,TGCTCCTGCCTCATCCTT,0.54
6,GTGGCAGATGGGACAGGG,≥ 1
7,TCTGTGACTTCCCAATCT,0.93
8,AGAGCAGGGCAGCACAGA,≥ 1
9,GTGCCTATGAAGACTGAG,0.4
10,TTGCGGCTCCCTGACCTG,≥ 1
11,TGCGGCTGGCTGTCTTCA,0.85
12,TCCAAGTCCTCCTCGGTG,≥ 1
13,AGACCCACACAGAACAGT,≥ 1
14,TGTGCCTCCAGACTCCTC,0.59
15,TCCGTCCTGAGCCTAAAA,0.7
16,CGTTGGTGGCGGTTTCTC,0.93
17,TCCCTCCCCAGACCCACA,≥ 1
18,CCAACCTCAAATGTCCCA,≥ 1
19,GGAGATGAACTGGGAGGT,0.48
20,CTCTGGTTCTTCAAATAA,≥ 1

row,Sequence,remaining target (mRNA or protein) (fraction of control)
1,GACAGCACCAGAGTAACC,0.69
2,CAGTGGTGGAGGTGGAAA,≥ 1
3,ACGGTGGGATAGGAAGGT,≥ 1
4,GACATCACGCCGCAACCC,0.39
5,GGATGCGGTCGTGCGTGA,0.86
6,GCACCAGCCGCCCACCCT,0.3
7,CCTCATAACTTTTCAACC,≥ 1
8,CCATAGTCCGAGGGCAGT,0.88
9,CGCTCTCGCTGTCTCGGA,≥ 1
10,GCACCCCAGCCTCCTCCA,0.79
11,ACAGACCAGGAGACAGTG,0.94
12,TCCCCACTGCCCACTTCC,≥ 1
13,CAGGCGGTAGTTGAGGTC,≥ 1
14,CACCCCAATAAATAGGCA,≥ 1
15,GAGATACTGCCCTGACCC,≥ 1
16,ATGTTGTCACTGCTCTGG,0.92
17,TGCCCCACCCCAACCAAC,≥ 1
18,AGGTGGGTGGGAAGGAGA,0.98
19,CCTTGTCCACCTCACTGT,0.81
20,TCCAGGCAGGTAGAGTAG,≥ 1

# Target: PTEN
# Details: ASO
row,Sequence,remaining target (mRNA or protein) (fraction of control)
1,CGAGAGGCGGACGGGACC,≥ 1
2,TTAAATTTGGCGGTGTCA,≥ 1
3,ACATAGCGCCTCTGACTG,0.28
4,TCTCCTCAGCAGCCAGAG,0.66
5,ATGGTGACAGGCGACTCA,0.25
6,CAGGAGAAGCCGAGGAAG,0.49
7,GGATAAATATAGGTCAAG,≥ 1
8,TCTTCTGCAGGATGGAAA,≥ 1
9,TGTTTCAAGCCCATTCTT,0.35
10,TCTGGATCAGAGTCAGTG,0.56
11,ATTACACCAGTTCGTCCC,0.41
12,CCCCAATACAGATTCACT,0.48
13,AATTATTTCCTTTCTGAG,0.86
14,CAAGATCTTCACAAAAGG,≥ 1
15,TATTTTCATGGTGTTTTA,0.24
16,CGGGCGCCTCGGAAGACC,0.38
17,GGAAGAACTCTACTTTGA,0.62
18,TGGCTGCAGCTTCCGAGA,0.27
19,TGTCTCTGGTCCTTACTT,0.66

row,Sequence,remaining target (mRNA or protein) (fraction of control)
1,ATTTCTTGATCACATAGA,≥ 1
2,TAAATAGCTGGAGATGGT,0.45
3,TGAAGAATGTATTTACCC,0.56
4,TCAATATTGTTCCTGTAT,≥ 1
5,CCGGGTCCCTGGATGTGC,0.24
6,ACTGGAATAAAACGGGAA,0.85
7,CCTCCGAACGGCTGCCTC,0.4
8,GAATATATCTTCACCTTT,0.58
9,CCCGCGGCTGCTCACAGG,0.19
10,TGTTCCTATAACTGGTAA,0.42
11,GGTTGGCTTTGTCTTTAT,0.23
12,TGCTAACGATCTCTTTGA,0.57
13,GTGTCAAAACCCTGTGGA,0.28
14,ACTTCAGTTGGTGACAGA,0.31
15,TGCTAGCCTCTGGATTTG,0.26
16,GGGAGGTGCCGCCGCCGC,0.58
17,CGCTTGGCTCTGGACCGC,0.16
18,TAGCAAAACCTTTCGGAA,0.49

# Target: RHOC
# Details: ASO
row,Sequence,remaining target (mRNA or protein) (fraction of control)
1,CCTGTGAGCCAGAAGTGT,0.31
2,GCTGAAGTTCCCAGGCTG,0.75
3,AGTTCTCAAAGACAGTAG,0.62
4,GTATGGAGCCCTCAGGAG,0.4
5,TCCCACAGGCACCATCCC,0.3
6,TTCCTGTGAGCCAGAAGT,0.31
7,GAGCCTTCAGTATGGAGC,0.37
8,ACTCTGGGTCCCTACTGC,0.8
9,AGGTCTTCCCACAGGCAC,0.6
10,CTCAAACACCTCCCGCAC,0.66
11,TGTTTTCCAGGCTGTCAG,0.41
12,AGGGCAGGGCATAGGCGT,0.69
13,ACTCAAGGTAGCCAAAGG,0.67
14,ATGAGGAGGCAGGTCTTC,0.59
15,CTCCCGCACTCCCTCCTT,0.09
16,CTTGTTCTTGCGGACCTG,0.28
17,GAAAATGGAGCCTTCAGT,0.76
18,GGAACTGAAAATGGAGCC,0.98
19,CCGGCTGAAGTTCCCAGG,0.58
20,CATGAGGAAGGGCAGGGC,≥ 1
21,GGCCATCTCAAACACCTC,0.36
22,GGAGGGAACTGAAAATGG,0.87
23,TTCCTCAGACCGAACGGG,0.43
24,GCAGGAGGGAACTGAAAA,0.73
